The source of these data is patent US4175081A, “5-Substituted thiadiazole ureas” (priority 1977, dated 1979).

In assay [1] the test system is Crabgrass (CG). The assay is described as follows: Pre-emergence herbicide test. The class given is in vivo, Digitaria sanquinalis. The following applies: Digitaria sanguinalis, pre-emergence, 336 h; 8 lb/acre; two weeks after treatment. The method in brief:
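Crabgrass (Digitaria sanquinalis) was surface seeded in 3' plastic pots of potting soil, covered with screened soil, and watered by sub-irrigation in greenhouse trays. Pots were seeded one day before spraying in a hood with a moving belt and fixed nozzle. Plants stayed in the greenhouse on sub-irrigation, and pre-emergence control was rated visually two weeks after treatment.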

In assay [2] the test system is Yellow foxtail grass (YF). The assay is described as follows: Pre-emergence herbicide test. The class given is in vivo, Setaria glauca. As to conditions: Setaria, 336 h, 8 lb/acre, two weeks after treatment. Put shortly:
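Visual rating of injury/control made two weeks after a pre-emergence spray of 8 or 4 lbs active per acre (38 gal/acre) onto pots seeded the previous day. Greenhouse watering by sub-irrigation only.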

In assay [3] the test system is Johnson grass (JG). Nature of the assay: Pre-emergence herbicide test. The class given is in vivo, Sorgum helepense. The following applies: Sorghum halepense, 336 h, 8 lb/acre, two weeks after treatment. The method in brief: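 Visual injury or control rating two weeks post-treatment, after pre-emergence spray of 8 or 4 lbs active per acre (38 gal/acre) onto pots sown the previous day. Greenhouse watering by sub-irrigation only.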

Assay [4] concerns Barnyard grass (BG). Nature of the assay: Pre-emergence herbicide test. The following applies: Echinochloa crus-galli, 336 h, 8 lb/acre, two weeks after treatment. The class given is in vivo. Put shortly:
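Greenhouse pre-emergence spray test: pots seeded one day before treatment received compound at rates of 8 or 4 lb/acre (38 gal/acre). Visual injury/control scores for Echinochloa crus-galli taken at two weeks, with watering by sub-irrigation only.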

Assay [5] has as its system Amaranth pigweed (PW). The assay is described as follows: Pre-emergence herbicide test. As to conditions: 336 h, 8 lb/acre, two weeks after treatment. The class given is in vivo, Amaranthus retroflexus. The method in brief:
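Visual injury or control ratings were made at two weeks on pre-emergence pots, sub-irrigated in the greenhouse. Seeds were sown a day before a hood spray delivering 8 lbs/acre (or 4 lbs/acre) of compound in 38 gallons per acre.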

In assay [6] the test system is Turnip (TP). Nature of the assay: Pre-emergence herbicide test. The class given is in vivo, Brassica sp. The following applies: Brassica rapa, pre-emergence, 336 h; 8 lb/acre; two weeks after treatment. Put shortly: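 In this pre-emergence greenhouse test, turnip was seeded on the surface of potting soil in 3' plastic pots, lightly covered with screened soil, and watered from below. One day later the pots were sprayed in a belt-fed spray hood. Watering continued only by sub-irrigation, and percent control was visually scored two weeks after treatment.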

Assay [7] has as its system Cotton (CT). The assay is described as follows: Pre-emergence herbicide test. The class given is in vivo, Gossypium hirsutum var. DPL smooth leaf. The following applies: Gossypium hirsutum, 336 h, 8 lb/acre, two weeks after treatment. The method in brief:
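Visual injury/control ratings were taken at two weeks post-spray. Pots seeded a day earlier received compound pre-emergence at 8 lbs/acre, or 4 lbs/acre, in a 38 gallon/acre spray volume, and were then held in the greenhouse, watered only from below.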

The subject of assay [8] is Corn (CN). The assay is described as follows: Pre-emergence herbicide test. The class given is in vivo. The following applies: Zea mays, 336 h, 8 lb/acre, two weeks after treatment. The method in brief:
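Visual injury/control ratings were made 2 weeks post-spray on corn pots seeded (4 seeds, seed-diameter depth) the day before treatment. Application was a belt-hood spray of 38 gal/acre delivering 8 lbs active per acre, with a 4 lbs/acre rate also formulated. Watering was by sub-irrigation throughout.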

Assay [9] has as its system Bean (BN). The assay is described as follows: Pre-emergence herbicide test. As to conditions: Phaseolus vulgaris, 336 h, 8 lb/acre, two weeks after treatment. The class given is in vivo, Phaseolus vulgaris var. Black Valentine. The method in brief:
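Visual injury/control ratings were taken two weeks post-spray on sub-irrigated Phaseolus vulgaris var. Black Valentine. Pots were sown a day before treatment. Pre-emergence spray delivered 8 lbs actual compound per acre (or 4 lbs/acre) at 38 gallons per acre.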

The subject of assay [10] is Crabgrass (CG). Nature of the assay: Post-emergence herbicide test. The class given is in vivo, Digitaria sanquinalis. The following applies: Digitaria sanguinalis, post-emergence, 336 h; 8 lb/acre; two weeks after treatment. The method in brief: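 Crabgrass (Digitaria sanquinalis) was surface seeded individually in 3' plastic pots of potting soil, covered with screened soil, and watered by sub-irrigation in greenhouse trays. Planting was staggered so seedlings reached the target stage together. Post-emergence sprays were applied in a hood with a removable belt and fixed nozzle, and control was visually rated two weeks after treatment.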

The subject of assay [11] is Yellow foxtail grass (YF). The assay is described as follows: Post-emergence herbicide test. The class given is in vivo, Setaria glauca. The following applies: Setaria, 336 h, 8 lb/acre, two weeks after treatment. Put shortly: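 Visual rating of injury/control made 2 weeks post-spray. Seedlings at a uniform growth stage in soil-filled pots received a hood spray of 8 lbs/acre active compound, 38 gallons/acre volume, with a 4 lbs/acre rate also formulated. Watering was by sub-irrigation only.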

Assay [12] deals with Johnson grass (JG). The assay is described as follows: Post-emergence herbicide test. The class given is in vivo, Sorgum helepense. The following applies: Sorghum halepense, 336 h, 8 lb/acre, two weeks after treatment. Put shortly: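 Visual injury or control scores taken 2 weeks after a post-emergence spray of pot-grown plants. Application was 8 lbs/acre (or 4 lbs/acre) in 38 gal/acre. Plants were held in the greenhouse with sub-irrigation only.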

The test system of assay [13] is Barnyard grass (BG). Nature of the assay: Post-emergence herbicide test. As to conditions: Echinochloa crus-galli, 336 h, 8 lb/acre, two weeks after treatment. The class given is in vivo. Put shortly:
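Greenhouse pot-grown barnyard grass seedlings sprayed post-emergence at 8 lbs active compound per acre (some at 4 lbs/acre) in 38 gallons per acre, then sub-irrigated. Injury or control rated visually two weeks after treatment.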

Assay [14] relates to Amaranth pigweed (PW). Nature of the assay: Post-emergence herbicide test. As to conditions: 336 h, 8 lb/acre, two weeks after treatment. The class given is in vivo, Amaranthus retroflexus. Put shortly: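 Visual injury or control ratings were made two weeks after spraying, with greenhouse watering by sub-irrigation only. Treatment was post-emergence, when pigweed seedlings had 1 or 2 true leaves, at 8 lbs active compound per acre (4 lbs/acre formulations also made) in a 38 gallons-per-acre spray volume.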

Assay [15] relates to Turnip (TP). The assay is described as follows: Post-emergence herbicide test. The class given is in vivo, Brassica sp. As to conditions: Brassica rapa, post-emergence, 336 h; 8 lb/acre; two weeks after treatment. The method in brief: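 A greenhouse post-emergence herbicide test on turnip. Seeds were sown on the surface of potting soil in 3' plastic pots, lightly covered with screened soil and watered from below. Planting was timed so seedlings had 1 or 2 true leaves above the cotyledons at spraying, done in a hood with a fixed nozzle. Control or injury was scored by eye after two weeks.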

For assay [16], the system named is Cotton (CT). The assay is described as follows: Post-emergence herbicide test. The class given is in vivo, Gossypium hirsutum var. DPL smooth leaf. The following applies: Gossypium hirsutum, post-emergence, 336 h; 8 lb/acre; two weeks after treatment. The method in brief: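 This greenhouse post-emergence test measured how well spray treatments controlled cotton. Seedlings of Gossypium hirsutum var. DPL smooth leaf, with expanded cotyledons and a first true leaf 1' in length, were sprayed with 50 ml formulations in a belt-fed spray hood. They were then returned to the greenhouse and watered only by sub-irrigation. Injury was scored visually as % control after two weeks.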

Assay [17] concerns Corn (CN). The assay is described as follows: Post-emergence herbicide test. The class given is in vivo. As to conditions: Zea mays, 336 h, 8 lb/acre, two weeks after treatment. Put shortly:
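Greenhouse seedlings grown in potting soil and sprayed post-emergence at 8 lbs compound/acre (formulations also made for 4 lbs/acre) in 38 gallons/acre spray volume. Watering by sub-irrigation only. Injury or control rated visually two weeks after treatment.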

Assay [18] relates to Bean (BN). The assay is described as follows: Post-emergence herbicide test. The following applies: Phaseolus vulgaris, post-emergence, 336 h; 8 lb/acre; two weeks after treatment. The class given is in vivo, Phaseolus vulgaris var. Black Valentine. The method in brief: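 Bean seedlings (Phaseolus vulgaris var. Black Valentine) were grown in potting soil in 3' pots until the primary leaves expanded. They were then sprayed under a hood with a removable belt and fixed nozzle, using 50 ml formulations. Afterward they were returned to the greenhouse and watered only by sub-irrigation. Percent control was judged visually two weeks after treatment.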

In assay [19] the test system is variety of crops and weed species. Nature of the assay: Pre- and post-emergence herbicide tests, overall assessment of Tables III-VI. The following applies: data of Tables III-VI. The class given is in vivo. Put shortly: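 Crops and weeds grown in potting soil were sprayed at 8 lbs. compound per acre in 38 gallons per acre, pre-emergence pots seeded one day before treatment. Injury or control was visually rated two weeks after treatment.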

As usually defined, the pest or weed control is the degree to which the test organism was suppressed or injured, in per cent. A high value points to strong suppression. For the compound `C=CCNC(=O)Nc1nnc(C(F)(F)F)s1` [Example 12], the pest or weed control at 8966.8 g/ha with Crabgrass (CG) [1] came out at 20%; in assay [2], 10%; with Johnson grass (JG) [3], 10%; in the assay on Barnyard grass (BG) [4], 10%; with Amaranth pigweed (PW) [5], 10%; in the assay with Turnip (TP) [6], 10%. In addition, the pest or weed control at 8966.8 g/ha in the assay with Cotton (CT) [7] was determined as 30%; in the assay on Corn (CN) [8] it was 10%; in the assay on Bean (BN) [9], 10%; with Crabgrass (CG) [10], 50%; in assay [11], 40%; with Johnson grass (JG) [12], 40%. Further, the pest or weed control at 8966.8 g/ha in the assay with Barnyard grass (BG) [13] is 50%; in the assay on Amaranth pigweed (PW) [14], 70%; in the assay with Turnip (TP) [15], 70%; in the assay on Cotton (CT) [16] it was 90%; in the assay on Corn (CN) [17] it was 40%; with Bean (BN) [18], 100%. Besides, in assay [19], the “herbicidal effectiveness / selectivity, in words” value is listed as “control post-emergence growth, while have little effect in regard to pre-emergence”.
Take `CSc1nnc(N(C)C(=O)N(C)C)s1` [Example 5, 1,1,3-trimethyl-3-[5-methylthio-2-(1,3,4-thiadiazolyl)] urea]: the pest or weed control at 8966.8 g/ha in the assay on Crabgrass (CG) [1] stood at 100%; in [2] it was 90%; in the assay on Johnson grass (JG) [3], 50%; in the assay with Barnyard grass (BG) [4], 80%; in the assay with Amaranth pigweed (PW) [5], 100%; with Turnip (TP) [6], 100%. The pest or weed control at 8966.8 g/ha with Cotton (CT) [7] was 90%; with Corn (CN) [8] it was 70%; in the assay on Bean (BN) [9], 90%; in the assay with Crabgrass (CG) [10], 100%; in [11] it was 100%; with Johnson grass (JG) [12], 90%. Further, the pest or weed control at 8966.8 g/ha with Barnyard grass (BG) [13], in the assay with Amaranth pigweed (PW) [14], in the assay with Turnip (TP) [15], in the assay with Cotton (CT) [16], in the assay with Corn (CN) [17] and in the assay with Bean (BN) [18] was 100% in each case. Further, in assay [19], the “herbicidal effectiveness / selectivity, in words” value is “extremely effective when applied to a variety of crops and weed species”.
For the compound `CNC(=O)Nc1nnc(COC)s1` [Example 25], the pest or weed control at 8966.8 g/ha was 20% in the assay with Crabgrass (CG) [1]; 10% in [2]; 10% with Johnson grass (JG) [3]; 10% with Barnyard grass (BG) [4]; 10% in the assay on Amaranth pigweed (PW) [5]; 10% in the assay on Turnip (TP) [6]. The pest or weed control at 8966.8 g/ha worked out at 100% in the assay with Cotton (CT) [7]; 10% in the assay with Corn (CN) [8]; 70% in the assay with Bean (BN) [9]; 30% in the assay with Crabgrass (CG) [10]; 20% in assay [11]; 30% in the assay with Johnson grass (JG) [12]. The pest or weed control at 8966.8 g/ha is 20% in the assay with Barnyard grass (BG) [13]; 40% in the assay on Amaranth pigweed (PW) [14]; 30% in the assay with Turnip (TP) [15]; 100% in the assay with Cotton (CT) [16]; 30% in the assay on Corn (CN) [17]; 100% in the assay on Bean (BN) [18]. The “herbicidal effectiveness / selectivity, in words” value in [19] is “more selective when applied to a certain crop or weed species”.
